Test results published in US9163008B2, “Pyrimidines as sodium channel blockers” (Purdue Pharma, L.P., priority 2011, dated 2015).
Like-named read-outs stand apart in the source and are kept apart here.

Legend:
human Nav1.7 = human Nav1.7 (Homo sapiens (Human), UniProt Q15858); assay: FLIPR sodium dye assay (CoroNa Green) with KCl and test article pre-incubation; type: cell-based; settings: read-out: Nav1.7 Activity FLIPR assay IC50
hNav1.7 = hNav1.7 (Homo sapiens (Human), UniProt Q15858); assay: Electrophysiology (EP) whole-cell patch clamp assay; type: cell-based; settings: for Ki: read-out: Nav1.7 Activity EP assay Ki; for Kd: resting block dissociation constant, read-out: Nav1.7 Activity EP assay Kr
hNav1.7, sequence (Q15858 other isoform, or with tags, fused parts or gaps): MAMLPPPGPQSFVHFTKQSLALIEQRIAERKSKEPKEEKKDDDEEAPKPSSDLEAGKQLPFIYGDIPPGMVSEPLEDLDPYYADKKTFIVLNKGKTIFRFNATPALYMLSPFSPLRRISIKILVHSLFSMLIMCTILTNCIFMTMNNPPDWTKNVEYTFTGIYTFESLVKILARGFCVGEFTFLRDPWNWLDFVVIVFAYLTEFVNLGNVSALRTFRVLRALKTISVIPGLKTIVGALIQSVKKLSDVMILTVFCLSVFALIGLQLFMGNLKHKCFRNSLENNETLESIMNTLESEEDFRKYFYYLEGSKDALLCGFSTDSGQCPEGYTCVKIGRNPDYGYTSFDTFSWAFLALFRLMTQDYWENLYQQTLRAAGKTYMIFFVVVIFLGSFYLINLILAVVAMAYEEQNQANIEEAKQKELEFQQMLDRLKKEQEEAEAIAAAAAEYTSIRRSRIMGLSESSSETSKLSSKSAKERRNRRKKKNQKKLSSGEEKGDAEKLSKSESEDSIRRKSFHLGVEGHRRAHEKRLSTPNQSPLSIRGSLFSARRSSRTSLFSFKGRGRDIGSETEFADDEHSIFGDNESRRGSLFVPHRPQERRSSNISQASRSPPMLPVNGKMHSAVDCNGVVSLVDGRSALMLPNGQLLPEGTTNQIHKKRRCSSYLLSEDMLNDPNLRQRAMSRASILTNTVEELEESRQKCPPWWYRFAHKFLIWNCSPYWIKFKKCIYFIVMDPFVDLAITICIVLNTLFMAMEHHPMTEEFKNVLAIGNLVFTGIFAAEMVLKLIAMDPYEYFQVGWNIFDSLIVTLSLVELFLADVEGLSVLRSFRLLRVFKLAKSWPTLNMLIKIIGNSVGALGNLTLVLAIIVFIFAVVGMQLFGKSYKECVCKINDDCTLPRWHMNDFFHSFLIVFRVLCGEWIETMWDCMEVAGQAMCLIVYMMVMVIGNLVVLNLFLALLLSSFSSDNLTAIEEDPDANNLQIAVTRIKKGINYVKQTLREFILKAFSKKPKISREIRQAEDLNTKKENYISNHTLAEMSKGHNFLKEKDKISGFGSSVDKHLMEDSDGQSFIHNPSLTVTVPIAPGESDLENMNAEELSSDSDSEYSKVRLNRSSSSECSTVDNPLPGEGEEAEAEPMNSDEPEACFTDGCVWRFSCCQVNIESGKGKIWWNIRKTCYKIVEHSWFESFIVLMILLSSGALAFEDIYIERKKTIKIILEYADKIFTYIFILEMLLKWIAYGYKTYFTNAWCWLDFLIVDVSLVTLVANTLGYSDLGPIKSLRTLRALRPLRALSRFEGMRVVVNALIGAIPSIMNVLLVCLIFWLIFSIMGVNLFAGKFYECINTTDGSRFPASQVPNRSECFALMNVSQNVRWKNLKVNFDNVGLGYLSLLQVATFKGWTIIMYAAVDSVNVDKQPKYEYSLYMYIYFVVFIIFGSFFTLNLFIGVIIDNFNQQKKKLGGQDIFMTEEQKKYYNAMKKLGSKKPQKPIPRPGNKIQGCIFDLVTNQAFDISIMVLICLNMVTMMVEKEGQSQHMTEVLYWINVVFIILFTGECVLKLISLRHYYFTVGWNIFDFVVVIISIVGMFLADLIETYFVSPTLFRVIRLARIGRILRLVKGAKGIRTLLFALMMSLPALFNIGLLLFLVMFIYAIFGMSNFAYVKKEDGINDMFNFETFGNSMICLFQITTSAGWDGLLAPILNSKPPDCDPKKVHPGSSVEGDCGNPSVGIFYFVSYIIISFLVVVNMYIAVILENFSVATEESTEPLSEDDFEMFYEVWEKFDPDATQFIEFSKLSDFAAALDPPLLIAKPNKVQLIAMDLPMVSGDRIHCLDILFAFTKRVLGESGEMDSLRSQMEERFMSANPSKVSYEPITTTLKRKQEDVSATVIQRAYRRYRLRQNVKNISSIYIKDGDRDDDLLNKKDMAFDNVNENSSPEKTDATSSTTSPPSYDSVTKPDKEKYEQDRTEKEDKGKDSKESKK
Method: The hNav1.7 expressing HEK-293 cells were plated on 35 mm culture dishes pre-coated with poly-D-lysine in standard DMEM culture media (Mediatech, Inc., Herndon, Va.) and incubated in a 5% CO2 incubator at 37° C. Cultured cells were used approximately 12-48 h after plating.
On the day of experimentation, the 35 mm dish was placed on the stage of an inverted microscope equipped with a perfusion system that continuously perfuses the culture dish with fresh recording media. A gravity driven superfusion system was used to apply test solutions directly to the cell under evaluation. This system consists of an array of glass pipette glass connected to a motorized horizontal translator. The outlet of the shooter was positioned approximately 100 μm from the cell of interest.
Gigaseals were formed and the whole-cell configuration was established in voltage clamp mode, and membrane currents generated by hNav1.7 were recorded in gap-free mode. […] Signals were sampled at 50 kHz and low pass filtered at 3 kHz.
To determine a membrane potential at which the majority of channels are in the resting state, a standard steady-state inactivation (SSIN) protocol was run using 100 ms prepulses×10 mV depolarizing steps. The holding potential for testing resting block (Vh1) was 20 mV more hyperpolarized than the first potential where inactivation is observed with the inactivation protocol.
From this holding potential a standard I-V protocol was run to determine the potential at which the maximal current (Imax) was elicited. This potential was the test potential (Vt).
The fractional response was calculated as follows: FR=I(after drug)/I(control),
where I is the peak current amplitude and was used for estimating resting block dissociation constant, Kr: Kr=[drug]*{FR/(1−FR)},
To assess the block of inactivated channels the holding potential was depolarized such that 20-50% of the current amplitude was reduced when pulsed to the same Vt as above. The magnitude of this depolarization depends upon the initial current amplitude and the rate of current loss due to slow inactivation. This was the second holding potential (Vh2). The current reduction was recorded to determine the fraction of available channels at this potential (h). h=I@Vh2/Imax.
At this membrane voltage a proportion of channels are in the inactivated state, and thus inhibition by a blocker includes interaction with both resting and inactivated channels.
To determine the potency of the test compound on inactivated channels, a series of currents were elicited by 10 ms voltage steps from Vh2 to Vt every 10-15 seconds. After establishing a stable baseline, the low concentration of the compound was applied. Multiple cumulative concentrations may have to be applied to identify a concentration that will block between 40-60% of the current. Washout was attempted to re-establish baseline. Fractional responses were measured with respect to a projected baseline to determine Kapp. Kapp=[drug]*{FR/(1−FR)},
This Kapp value, along with the calculated Kr and h values, were used to calculate the affinity of the compound for the inactivated channels (Ki) using the following equation: Ki=(1−h)/((1/Kapp)−(h/Kr)).
Vehicle solution used to establish base line was also contacting 0.3% DMSO.
Data was analyzed off-line using Clampfit software (pClamp, v. 8; Axon Instruments) and graphed using GraphPad Prizm (v. 4.0 or higher) software.

[1] = test system: SNL-induced mechanical hyperalgesia; assay: SNL-induced mechanical hyperalgesia model (paw pressure test); type: in vivo, rat; settings: rats, dosed orally at 100 mg/kg, vehicle 0.5% methyl cellulose, one hour before testing
Method: In the Chung model, the spinal nerve ligation (SNL) model of neuropathic pain is used to produce mechanical hyperalgesia, thermal hyperalgesia, and tactile allodynia in rats. Surgery is performed under isoflurane/O2 inhalation anesthesia. Following induction of anesthesia a 3 cm incision is made and the left paraspinal muscles are separated from the spinous process at the L4-S2 levels. The L6 transverse process is carefully removed with a pair of small rongeurs to identify visually the L4-L6 spinal nerves. The left L5 (or L5 and L6) spinal nerve(s) is (are) isolated and tightly ligated with silk thread. […] The animals can also be assessed for response to noxious thermal stimuli or for tactile allodynia, as described below. […] Sensitivity to noxious mechanical stimuli was measured in animals using the paw pressure test to assess mechanical hyperalgesia. In rats, hind paw withdrawal thresholds (“PWT”), measured in grams, in response to a noxious mechanical stimulus were determined using an analgesymeter (Model 7200, commercially available from Ugo Basile of Italy), as described in Stein (Biochemistry & Behavior 31: 451-455 (1988)). […] PWT was determined once for each rat at each time point. PWT can be measured only in the injured paw, or in both the injured and non-injured paw. […]

[2] = affinity for inactivated channels, hNav1.7 HEK-293
[3] = recombinant human Nav1.7 in HEK293, veratridine and scorpion venom agonists

human Nav1.7, sequence (Q15858 other isoform, or with tags, fused parts or gaps): as above

Row | SMILES | IC50 (human Nav1.7) [nM] | Ki (hNav1.7) [nM] | Kd (hNav1.7; hNav1.7 HEK-293) [nM] | Ki (hNav1.7; [2]) [nM] | IC50 (human Nav1.7; [3]) [nM] | SNL-induced mechanical hyperalgesia (paw withdrawal threshold) [1]
1 | C[C@H](Nc1cc(C(N)=O)nc(-c2ccc(Oc3ccc(F)cc3)cc2)n1)C(N)=O [Cpd No. 1, (S)-6-((1-amino-1-oxopropan-2-yl)amino)-2-(4-(4-fluorophenoxy)phenyl)pyrimidine-4-carboxamide] | 420 | 57 | 4220 |  |  | 
2 | NC(=O)c1cc(N2CCC[C@H]2C(N)=O)nc(-c2ccc(Oc3ccc(F)cc3)cc2)n1 [Cpd No. 5, (S)-6-(2-carbamoylpyrrolidin-1-yl)-2-(4-(4-fluorophenoxy)phenyl)pyrimidine-4-carboxamide] | 260 |  | 7950 | 78 |  | 
3 | C[C@H](Nc1cc(C(N)=O)nc(-c2ccc(Oc3ccc(C(F)(F)F)cn3)cc2)n1)C(N)=O [Cpd No. 13, (S)-6-((1-amino-1-oxopropan-2-yl)amino)-2-(4-((5-(trifluoromethyl)pyridin-2-yl)oxy)phenyl)pyrimidine-4-carboxamide] | 990 |  | 169000 | 420 |  | 
4 | C[C@@H](Nc1cc(C(N)=O)nc(-c2ccc(Oc3ccc(F)cc3)cc2)n1)C(N)=O [Cpd No. 21, (R)-6-((1-amino-1-oxopropan-2-yl)amino)-2-(4-(4-fluorophenoxy)phenyl)pyrimidine-4-carboxamide] | 600 | 230 | 7250 |  |  | 
5 | C[C@H](Nc1cc(C(=O)O)nc(-c2ccc(Oc3ccc(F)cc3)cc2)n1)C(N)=O [Cpd No. 35, (S)-6-((1-amino-1-oxopropan-2-yl)amino)-2-(4-(4-fluorophenoxy)phenyl)pyrimidine-4-carboxylic acid] |  |  | 102000 | 20500 | > 20000 | 
6 | C[C@H](Nc1cc(C(=O)O)nc(-c2ccc(Oc3ccc(F)cc3)cc2)n1)C(=O)O [Cpd No. 40, (S)-6-((1-carboxyethyl)amino)-2-(4-(4-fluorophenoxy)phenyl)pyrimidine-4-carboxylic acid] |  |  | 110000 | 41000 | > 20000 | 
7 | C[C@H](Nc1cc(C(N)=O)nc(-c2ccc(Oc3ccc(Cl)cn3)cc2)n1)C(N)=O [Cpd No. 63, (S)-6-((1-amino-1-oxopropan-2-yl)amino)-2-(4-((5-chloropyridine-2-yl)oxy)phenyl)pyrimidine-4-carboxamide] | 790 |  | 28000 | 600 |  | 
8 | C[C@H](Nc1cc(C(N)=O)nc(-c2ccc(Oc3ccc(Cl)cc3F)cc2)n1)C(N)=O [Cpd No. 64, (S)-6-((1-amino-1-oxopropan-2-yl)amino)-2-(4-(4-chloro-2-fluorophenoxy)phenyl)pyrimidine-4-carboxamide] | 180 |  | 730 | 16 |  | 
9 | C[C@H](Nc1cc(C(N)=O)nc(-c2ccc(Oc3ccc(OC(F)(F)F)cc3)cc2)n1)C(N)=O [Cpd No. 84, (S)-6-((1-amino-1-oxopropan-2-yl)amino)-2-(4-(4-(trifluoromethoxy)phenoxy)phenyl)pyrimidine-4-carboxamide] |  |  |  |  |  | reduced SNL-induced mechanical hyperalgesia
10 | NC(=O)c1cc(N[C@H]2CCNC2=O)nc(-c2ccc(Oc3ccc(C(F)(F)F)cn3)cc2)n1 [compound 99, (S)-6-((2-oxopyrrolidin-3-yl)amino)-2-(4-((5-(trifluoromethyl)pyridin-2-yl)oxy)phenyl)pyrimidine-4-carboxamide] | 570 |  | 4650 | 83 |  | reduced SNL-induced mechanical hyperalgesia
11 | C[C@H](Nc1cc(C(N)=O)nc(N2CCC(Oc3ccc(C#N)cc3)CC2)n1)C(N)=O [compound 100, (S)-6-((1-amino-1-oxopropan-2-yl)amino)-2-(4-(4-cyanophenoxy)piperidin-1-yl)pyrimidine-4-carboxamide] |  |  |  |  | 4570 | 
